Assay results published in PubChem BioAssay (NCI).
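Briefly, cells in 96-well plates were exposed to five compound concentrations for 48 h, and endpoints were estimated by linear interpolation. TGI denotes the concentration required for complete inhibition of growth.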

Experiments:
Assay in all cases: NCI anticancer screen, dose series, 48 h
SF-539 CNS = system: SF-539 CNS
COLO 205 colon = system: COLO 205 colon
UACC-257 melanoma = system: UACC-257 melanoma
SNB-75 CNS = system: SNB-75 CNS
HOP-62 NSCLC = system: HOP-62 NSCLC
MOLT-4 leukemia = system: MOLT-4 leukemia
UO-31 renal = system: UO-31 renal
SK-MEL-5 melanoma = system: SK-MEL-5 melanoma
SW-620 colon = system: SW-620 colon
M14 melanoma = system: M14 melanoma
MDA-MB-435 = system: MDA-MB-435
A498 renal = system: A498 renal
PC-3 prostate = system: PC-3 prostate
NCI-H460 lung = system: NCI-H460 lung
OVCAR-8 ovarian = system: OVCAR-8 ovarian
K-562 leukemia = system: K-562 leukemia
SK-MEL-2 melanoma = system: SK-MEL-2 melanoma
CCRF-CEM leukemia = system: CCRF-CEM leukemia
MALME-3M melanoma = system: MALME-3M melanoma
SN12C renal = system: SN12C renal

Structure (SMILES) | TGI (SF-539 CNS) | TGI (COLO 205 colon) | TGI (UACC-257 melanoma) | TGI (SNB-75 CNS) | TGI (HOP-62 NSCLC) | TGI (MOLT-4 leukemia) | TGI (UO-31 renal) | TGI (SK-MEL-5 melanoma) | TGI (SW-620 colon) | TGI (M14 melanoma) | TGI (MDA-MB-435) | TGI (A498 renal) | TGI (PC-3 prostate) | TGI (NCI-H460 lung) | TGI (OVCAR-8 ovarian) | TGI (K-562 leukemia) | TGI (SK-MEL-2 melanoma) | TGI (CCRF-CEM leukemia) | TGI (MALME-3M melanoma) | TGI (SN12C renal)
CCOC(=O)c1c(NC(=O)OC)c(C#N)c2n1CCCCC2 | > 100 µM | > 100 µM | > 100 µM | > 100 µM | > 100 µM | > 100 µM | > 100 µM | > 100 µM | > 100 µM | > 100 µM | > 100 µM | > 100 µM | > 100 µM | > 100 µM | > 100 µM | > 100 µM | > 100 µM | > 100 µM | – | –
Cc1cc(C)c2c(c1)C/C(=C\c1ccccc1C(=O)O)C2=O | > 100 µM | – | > 100 µM | > 100 µM | > 100 µM | > 100 µM | > 100 µM | > 100 µM | > 100 µM | > 100 µM | – | > 100 µM | > 100 µM | 26.4 µM | > 100 µM | > 100 µM | – | > 100 µM | > 100 µM | > 100 µM
Cc1cn(C2CC(O)C(CO[Si](C)(C)C(C)(C)C)OC2OC(C)C)c(=O)[nH]c1=O (configuration not stated) | 56.1 µM | 48.9 µM | > 100 µM | > 100 µM | – | – | > 100 µM | 93.9 µM | > 100 µM | 92.5 µM | > 100 µM | – | > 100 µM | > 100 µM | 91.8 µM | > 100 µM | > 100 µM | 61.1 µM | > 100 µM | > 100 µM
CC(O)CCCCC(O)CCC[C@H](O)[C@H]1CCC([C@H]2CCC([C@@H](O)CCCCCCCCCCCCC3=C[C@H](C)OC3=O)O2)O1 (some centres not stated) | 20.6 µM | 23.7 µM | 20.7 µM | 18.9 µM | 20.7 µM | 20.1 µM | 19 µM | 17.2 µM | 23.4 µM | 21.4 µM | 18.5 µM | – | 21.2 µM | 18.1 µM | 21.7 µM | – | 18.3 µM | 31.7 µM | – | 22.9 µM
Cc1ccc(NC(=O)CSc2nnc(-c3ccc(N=Cc4ccc(Cl)cc4)cc3)o2)cc1 | – | > 100 µM | > 100 µM | > 100 µM | > 100 µM | > 100 µM | > 100 µM | > 100 µM | > 100 µM | > 100 µM | – | – | – | > 100 µM | > 100 µM | > 100 µM | > 100 µM | > 100 µM | > 100 µM | > 100 µM
CC1(C)CC(=O)C(C=NC(=O)c2ccncc2)=C(O)C1 | > 100 µM | > 100 µM | > 100 µM | > 100 µM | > 100 µM | > 100 µM | > 100 µM | > 100 µM | > 100 µM | > 100 µM | > 100 µM | – | > 100 µM | > 100 µM | > 100 µM | – | > 100 µM | > 100 µM | – | > 100 µM
CCOC(=O)c1nc2ccc(C(F)(F)F)cc2[nH]c1=O | > 100 µM | > 100 µM | > 100 µM | – | > 100 µM | > 100 µM | > 100 µM | > 100 µM | > 100 µM | > 100 µM | > 100 µM | > 100 µM | > 100 µM | > 100 µM | > 100 µM | > 100 µM | > 100 µM | > 100 µM | – | > 100 µM
COc1ccc(-c2nc(-c3cc4c(ccc5ccccc54)oc3=O)cs2)cc1 | > 100 µM | > 100 µM | > 100 µM | > 100 µM | > 100 µM | > 100 µM | > 100 µM | > 100 µM | > 100 µM | > 100 µM | > 100 µM | – | > 100 µM | > 100 µM | – | > 100 µM | > 100 µM | > 100 µM | – | > 100 µM
CN1C(=O)c2ccccc2OC12C=Cc1ccc(O)cc1O2 (configuration not stated) | – | 65.1 µM | 43.6 µM | 80.1 µM | 73.7 µM | 58.7 µM | 57.7 µM | 37.6 µM | > 100 µM | 45.3 µM | 85.3 µM | 53.4 µM | 59.2 µM | 61.8 µM | 37.4 µM | > 100 µM | 56.1 µM | 72.8 µM | – | > 100 µM
Cc1cc(C)c(C(=O)c2nnc3ccccc3c2N)c(C)c1 | – | 30.2 µM | > 100 µM | 86.3 µM | 32.9 µM | > 100 µM | – | 26.8 µM | > 100 µM | 34 µM | 56.3 µM | > 100 µM | 56.9 µM | – | – | – | 31.9 µM | > 100 µM | – | 38.5 µM
CCC(=O)O[C@H]1CC[C@H]2[C@@H]3CCC4=C/C(=N/OC(=O)c5cccc6c(=O)c7ccccc7[nH]c56)CC[C@]4(C)[C@H]3CC[C@]12C | 39.3 µM | > 100 µM | > 100 µM | > 100 µM | > 100 µM | 53.4 µM | 62.2 µM | > 100 µM | > 100 µM | 77.7 µM | 99.6 µM | 77.7 µM | > 100 µM | 54.5 µM | > 100 µM | 47 µM | 75.5 µM | 57.5 µM | – | > 100 µM
CCC1CCc2c(c(=O)oc3c2cc(OC)c2cccc(OC)c23)C1 (configuration not stated) | > 100 µM | > 100 µM | > 100 µM | > 100 µM | > 100 µM | > 100 µM | > 100 µM | 80.9 µM | – | > 100 µM | – | > 100 µM | – | > 100 µM | > 100 µM | > 100 µM | > 100 µM | > 100 µM | > 100 µM | > 100 µM
COc1cc(C(C)=O)cc(C(=O)N(C(C)C)C(C)C)c1[Si](C)(C)C | > 100 µM | > 100 µM | > 100 µM | 56.4 µM | > 100 µM | > 100 µM | > 100 µM | > 100 µM | > 100 µM | > 100 µM | > 100 µM | > 100 µM | > 100 µM | > 100 µM | > 100 µM | – | > 100 µM | > 100 µM | – | –
O=C(O)c1nc2ccc(C(F)(F)F)cc2nc1NCc1ccc(F)cc1 | 43.5 µM | 44.6 µM | 76.2 µM | 94.9 µM | 46.1 µM | 33.2 µM | 7.39 µM | 35.2 µM | > 100 µM | 61.7 µM | > 100 µM | 55.4 µM | 82.6 µM | 63 µM | 55.7 µM | 55.6 µM | 45.1 µM | > 100 µM | – | 35.4 µM
COc1ccc(OC)c(C(Cc2ccnc3ccccc23)Cc2ccnc3ccccc23)c1 | > 10 µM | > 10 µM | > 10 µM | > 10 µM | > 10 µM | > 10 µM | > 10 µM | > 10 µM | > 10 µM | > 10 µM | > 10 µM | > 10 µM | > 10 µM | > 10 µM | > 10 µM | > 10 µM | > 10 µM | > 10 µM | – | > 10 µM
Fc1ccc(C(=C2CCN(CCc3ccc4[nH]c(=S)[nH]c4c3)CC2)c2ccc(F)cc2)cc1 | 7.74 µM | 3.31 µM | 2.4 µM | 7.31 µM | 38.6 µM | > 27.8 µM | 5.11 µM | 5.74 µM | > 100 µM | 2.9 µM | – | 25 µM | 8.76 µM | 8.94 µM | 8.26 µM | > 100 µM | 7.95 µM | > 20.6 µM | 3.89 µM | 9.25 µM
COc1ccc2c(c1)C(=O)OCCC2 | > 100 µM | > 100 µM | > 100 µM | > 100 µM | > 100 µM | > 100 µM | > 100 µM | > 100 µM | > 100 µM | > 100 µM | > 100 µM | > 100 µM | > 100 µM | > 100 µM | > 100 µM | > 100 µM | > 100 µM | > 100 µM | – | > 100 µM
S=c1[nH]c(=S)c2nnn(-c3ccccc3)c2[nH]1 | > 100 µM | > 100 µM | > 100 µM | > 100 µM | > 100 µM | > 100 µM | > 100 µM | > 100 µM | > 100 µM | > 100 µM | – | – | – | > 100 µM | > 100 µM | > 100 µM | > 100 µM | > 100 µM | > 100 µM | > 100 µM
COc1ccc(-n2cnn3c(=O)c4cn[nH]c4nc23)cc1 | > 10 µM | – | > 10 µM | > 10 µM | – | > 10 µM | > 10 µM | > 10 µM | – | > 10 µM | > 10 µM | – | > 10 µM | > 10 µM | > 10 µM | > 10 µM | – | > 10 µM | > 10 µM | > 10 µM
O=C(/C=C/c1ccc(OCc2cccc(Cl)c2)cc1)NO | > 100 µM | 32 µM | > 100 µM | > 100 µM | > 100 µM | 18 µM | 18.7 µM | 45.7 µM | > 100 µM | > 100 µM | 53.3 µM | 27.8 µM | 47.4 µM | 41.9 µM | 20.3 µM | > 100 µM | 53.7 µM | 26.6 µM | – | 49.4 µM
Cc1cc2c(cc1C)C(=O)C1(C2)Cc2c(C)ccc(C)c2C1=O (configuration not stated) | > 100 µM | > 100 µM | > 100 µM | > 100 µM | – | > 100 µM | > 100 µM | > 100 µM | > 100 µM | > 100 µM | > 100 µM | – | > 100 µM | > 100 µM | > 100 µM | > 100 µM | > 100 µM | > 100 µM | > 100 µM | > 100 µM
